The target of one test is nicotinic receptors. In words: Inhibition of L-[^3 H] nicotine binding to mouse brain membrane preparations. Details: species or system mouse (DBA strain). The settings on record: mouse brain membranes, 2 hr. incubation at 4° C., pH 7.5, racemic mixture of ligand. On the procedure:
Mice (DBA strain) were maintained on a 12 hour light/dark cycle and were allowed free access to water and food supplied by Wayne Lab Blox, Madison, Wis. Animals used in the present studies were 60 to 90 days of age and weighed 20 to 25 g. Brain membrane preparations were obtained from pooled brain tissue of both males and females.
Mice were killed by cervical dislocation. Brains were removed and placed on an ice-cold platform. […] Protein was determined by the method of Lowry, et al., J. Biol. Chem., Vol. 193, pp. 265-275 (1951), using bovine serum albumin as the standard.
The binding of L-[^3 H] nicotine was measured using a modification of the method of Romano, et al., Science, Vol. 210, pp. 647-650 (1980) as described previously by Marks, et al., Mol. Pharmacol., Vol. 30, pp. 427-436 (1986). The binding of L-[^3 H] nicotine was measured using a 2 hr. incubation at 4° C. […] Nonspecific binding was determined by inclusion of 10 μM nonradioactive nicotine in the incubations. The inhibition of L-[^3 H] nicotine binding by test compounds was determined by including one of eight different concentrations of the test compound in the incubation. […] Inhibition constants (Ki values) were calculated from the IC50 values using the method of Cheng, et al., Biochem. Pharmacol., Vol. 22, pp. 3099-3108 (1973).

Test [1] relates to synaptosomes from the striatal area of rat brain. In words: Dopamine release from striatal synaptosomes of rat brain. The test is classed as cell-based, rat (Sprague-Dawley). Conditions: read-out: Dopamine Release (percent release relative to S(-)nicotine). On the procedure: Dopamine release was measured by preparing synaptosomes from the striatal area of rat brain generally obtained from Sprague-Dawley rats according to the procedures set forth by Nagy, et al., J. Neurochem., Vol. 43, pp. 1114-1123 (1984). Striata from 4 rats were homogenized in 2 ml of 0.32M sucrose buffered with 5 mM HEPES (pH 7.5), using a glass-teflon tissue grinder. The homogenate was diluted to 5 ml with additional homogenization solution and centrifuged at 1000×g for 10 min. This procedure was repeated on the new pellet and the resulting supernatant was centrifuged at 12,000×g for 20 min. […] Using this method, 30 to 90 percent of the dopamine was taken up into the synaptosomes, as determined by scintillation counting following filtration through glass fiber filters soaked with 0.5 percent polyethyleneimine. […] After the addition of a 0.2 ml of a 20 μM solution of ligand, the perfusate was collected into scintillation vials at 1 min. intervals and the dopamine released was quantified by scintillation counting. Peaks of radioactivity released above background were summed and the average basal release during that time was subtracted from the total. Release was expressed as a percentage of release obtained with an equal concentration of S(-)nicotine.

As a reminder, the Ki is a measure of affinity in units of concentration, obtained from inhibition or displacement. Consider `CC(=O)C1=CCC2CCC1N2` (stereo not shown) [Norferruginine, norferruginine], for which the Ki at nicotinic receptors came to 1.1 ± 0.3 µM. In addition, the Emax in test [1] stood at 25%.
For the molecule `CC(=O)C1=CCC2CCC1N2C` (stereo not shown) [Ferruginine, ferruginine], the Ki on nicotinic receptors is 3.1 ± 0.5 µM. The Emax in test [1] was 15%.

For the origin of these results see patent US5288872A, “Compounds for treatment of neurodegenerative diseases” (priority 1992, dated 1994).
